Measured values: patent publication US20230406873A1, “PROBES, SYSTEMS, AND METHODS FOR MAGNETIC RESONANCE PH SENSING” (The General Hospital Corporation, priority 2020, published 2023)
Read-outs that look alike come from different tables or passages of the source. Marks after values point to notes of the source that are not given here.

Columns and labels:
[1] = Fe^3+ complexes of reference ligands; method and conditions not given; cited from earlier work
[2] = pH-potentiometry of ligand (protonation constants); format: physicochemical; conditions: 0.1 M NaCl, 310 K; for log KLH: KLHn = [HnL]/[H][Hn-1L]
Procedure: (§1) pH-potentiometric measurements: pH-potentiometric measurements were performed using an Orion ROSS Ultra pH electrode and temperature-controlled reaction vessel held at 310 K. A standardized solution of 0.10 M NaOH was used as the titrant. The electrode was calibrated prior to each titration by titrating a standardized HCl(aq) solution at ionic strength 0.10 using NaCl as the inert electrolyte with the standardized NaOH titrant. A working slope and intercept were generated by plotting mV as a function of calculated pH, which enabled direct conversion of electrode readings to [H^+] during sample titrations. pH values recorded during the titrations refers to hydrogen ion concentration. All titration samples were prepared in solutions of 0.10 M NaCl in distilled, de-ionized water. Ligand solutions were prepared by dissolving a weighed quantity into the electrolyte and concentration was calculated from the effective weight of the ligand. Moles ligand present in titrand was also confirmed by measuring the mol added NaOH required to span each inflection point. Solutions of 1:1 ligand: Fe were prepared by adding an appropriate volume of standardized FeCl3 in 0.088 M HCl solution to a weighed quantity of ligand, the solutions were then adjusted with water and 1 M NaCl to ionic strength 0.10. The data was analyzed using the Hyperquad2013 software package.

[3] = pH-potentiometry of 1:1 ligand and Fe3+ solution (complex protonation constants, speciation); format: physicochemical; conditions: Fe^3+ complex, 0.1 M NaCl, 310 K; for log KML/ML(OH): 7.0 mM each Fe and ligand, [ML]/[ML(OH)][H], not an absolute protonation constant; for log KHML: KHML = [HML]/[H][ML]; for log KML: footnote d only: pH-potentiometry
Procedure: as §1

[4] = Estimation of log K (formation constant) from EDTA competition assay, HPLC; format: physicochemical; conditions: Fe^3+ complex; estimated from Kcomp using EDTA challenge; KML = [ML]/[M][L]
Description: The [Fe(PyCy2AI)]^+ formation constant was estimated from direct competition with EDTA at pH 4.4, I=0.1 M KNO3, and 310 K. Product distribution at equilibrium was estimated from an HPLC analysis of the reaction mixture (HPLC method A1). The equilibrium concentrations of [Fe(PyCy2AI)]^+ were quantified according to a linear calibration plot of HPLC peak area as a function of chelate concentration. An equilibrium constant, Keq, was estimated using Eq 4A,
The conditional (pH 4.4) formation constant, Kcond, was estimated from Keq and the previously (Kcond of Fe-EDTA measured under identical conditions using Eq 4B,
Under HPLC experimental conditions that cannot distinguish between chemical forms of the complex, the conditional stability constant can be estimated from the concentration coefficient of the ligand “L”, or PyCy2AI^2−, species (αL), which is known from the ligand pH-titration data. The formation constant was thus estimated using Eq 4C,
The HPLC assay conditions were chosen specifically to minimize contributions from ‘side products’ such as [Fe(HPyCy2AI)]^2+, [Fe(PyC2AI)(OH)], or [Fe(HEDTA)], which together we estimate to contribute <5% and <2% of total PyCy2AI and EDTA speciation.

[5] = Dimerization constant from concentration dependence on relaxivity at pH 9.0; format: physicochemical; conditions: Fe^3+ complex, pH 9.0, 310 K
Description: (§2) The dissociation constant for (ML)2O formation was estimated from the concentration dependence on r1 at pH 9.0, under these experimental conditions, complexes speciation is comprised near entirely by ML(OH) and the corresponding (ML)2O dimer and r1 can be expressed as Eq 7A, […]
r1=r1^monαmon+r1^dimαdim (Eq 7A) where r1^mon and r1^dim are the r1 corresponding to ML(OH) and (ML)2O and αmon and αdim are the fraction of total [Fe] comprised by each.
The concentration dependence on monomer vs. dimer speciation is governed by the equilibrium constant (Kd) in Eq 7B, Eq 7B can be rearranged to the corresponding quadratic equation, Eq 7C, and concentration of dimer solved by Eq 7D, Thus, the concentration dependence on ri was fit to a 3 parameter fit based on Eqs 7A-7D, yielding estimates of r1^mon, r1^dim, and Kd.

[6] = Dimerization constant from concentration dependence on extinction coefficient at 342 nm (UV-vis); format: physicochemical; conditions: Fe^3+ complex, pH 9.0, 310 K
Procedure: UV-vis spectra were recorded on a SpectraMax M2 spectrophotometer using quartz cuvettes with a 1 cm path length. Extinction coefficients recorded at pH 9 (ε, M^−1cm^−1) were estimated by dividing absorbance by sample Fe concentration.

[7] = Relaxivity measurements (r1) of Fe-PyCy2AI species; format: physicochemical; conditions: Fe^3+ complex; estimated from pH dependence on r1
Procedure: Relaxivity measurements were performed on a Bruker mq60 Minispec, 1.41 T, and on an 11.7 T Varian NMR spectrometer at 37° C. Longitudinal (T1) relaxation times were measured via an inversion recovery experiment using 10 inversion times of duration ranging between 0.05 s T1 and 5 s T1. Transverse (T2) relaxation times were measured using a Carl-Purcell-Meiboom-Gill spin-echo experiment. Under experimental conditions where 1/T1,2 increased linearly with increasing [Fe], relaxivity (r2i=1,2) was determined from the slope of a plot of 1/Ti(i=1,2) vs. [Fe] for at least 4 concentrations. Under conditions where non-negligible dimerization occurs, plots of 1/T1,2 vs. [Fe] are non-linear and r1,2 were estimated by dividing the Fe induced increase in 1/T1,2 by [Fe]. […]
as §2
Magnetic resonance imaging was performed using a Bruker Biospec 4.7 T system. […] T1 values for each compound was determined using a 2D rapid acquisition refocused echo (RARE) sequence of flip angle (FA)=90°, echo time (TE)=20 ms, repetition time (TR) ranging from 146-7500 ms, acquisition matrix=256×128, field of view=64×32 mm, slice thickness 1 mm. […]

Row | SMILES | log KLH2 [2] | log KLH3 [2] | log KLH4 [2] | log KLH [2] | log KML/ML(OH) [3] | log KHML ([3]; 7.0 mM ligand and Fe^3+) | log KMLH-1/MLH-2 ([3]; 7.0 mM ligand and Fe^3+, [MLH-1]/[MLH-2][H]) | log KML [4] | Dimerization Ka ([5]; 1.4 T) [mM⁻¹] | Dimerization Ka ([5]; 4.7 T) [mM⁻¹] | Dimerization Ka ([5]; 11.7 T) [mM⁻¹] | Dimerization Ka [6] [mM⁻¹] | log KML ([3]; 7.0 mM ligand and Fe^3+) | log KML/ML(OH) [7] | Dimerization Ka [1] [mM⁻¹]
1 | CC(CN(CC(=O)O)CC(=O)O)N(CC(=O)O)CC(=O)O (stereo not shown) [PDTA, N,N,N′,N′-1,2-propylenediaminetetracetic acid] |  |  |  |  |  |  |  |  |  |  |  |  |  |  | 0.19
2 | O=C(O)CN(CCN(CC(=O)O)CC(=O)O)CC(=O)O [EDTA, Ethylenediaminetetraacetic acid] | 6.13 | 2.69 | 2.00 | 10.19 | 7.37 | 1.3 |  |  |  |  |  |  | 25.1 |  | 0.44
3 | O=C(O)CN(CCO)CCN(CC(=O)O)CC(=O)O [HEDTA, Hydroxyethylethylenediaminetriacetic acid] |  |  |  |  |  |  |  |  |  |  |  |  |  |  | 0.24

More lines, main results first:

Row | log KLH2 [2] | log KLH3 [2] | log KLH4 [2] | log KLH [2] | log KML/ML(OH) [3] | log KHML ([3]; 7.0 mM ligand and Fe^3+) | log KMLH-1/MLH-2 ([3]; 7.0 mM ligand and Fe^3+, [MLH-1]/[MLH-2][H]) | log KML [4] | Dimerization Ka ([5]; 1.4 T) [mM⁻¹] | Dimerization Ka ([5]; 4.7 T) [mM⁻¹] | Dimerization Ka ([5]; 11.7 T) [mM⁻¹] | Dimerization Ka [6] [mM⁻¹] | log KML ([3]; 7.0 mM ligand and Fe^3+) | log KML/ML(OH) [7] | SMILES | Dimerization Ka [1] [mM⁻¹]
4 | 6.44 ± 0.03 | 4.23 ± 0.033 | 2.27 ± 0.05 | 10.62 ± 0.04 | 6.46 ± 0.03 | 2.91 ± 0.05 | 10.24 ± 0.05 | 23.9 ± 0.03^c | 2.3 ± 0.57 | 5.1 ± 2.7 | 7.4 ± 5.5 | 6.2 ± 1.5 |  |  | O=C(O)CN(Cc1c[nH]cn1)C1CCCC[C@@H]1N(CC(=O)O)Cc1ccccn1 (mixture of isomers) [PyCy2AI, (±)-trans-N-((1H-imidazol-4-yl)methyl)-N′-(picolyl)-N,N′-cyclohexane-1,2-diamine diacetate bis-trifluoroacetic acid] | 
5 | 6.39 | 3.13 |  | 10.16 |  |  |  | 26.0^c |  |  |  |  |  | 8.50^g | O=C(O)CN(CC(=O)O)[C@H]1CCCC[C@@H]1N(CC(=O)O)Cc1ccccn1 [PyC3A] | 
6 | 6.12 | 3.49 | 2.40 | 12.3 | 9.57 |  |  |  |  |  |  |  | 29.1 |  | O=C(O)CN(CC(=O)O)C1CCCCC1N(CC(=O)O)CC(=O)O (stereo not shown) [CyDTA, 1,2-Cyclohexylenedinitrilotetraacetic acid] | 0.012
